Laboratory results: paper PMC6218659, “Structures of DPAGT1 Explain Glycosylation Disease Mechanisms and Advance TB Antibiotic Design” (Cell, 2018)
In brackets after ≈: the same amount, converted by molar mass.

Experiments:
DPAGT1 = biological target: T1, DPAGT1 (Homo sapiens, UniProt Q9H3H5); assay: Radiolabeled substrate enzyme activity assay; type: biochemical, H. sapiens; conditions: purified DPAGT1 enzyme, Figure 6F
T1 construct: H. sapiens DPAGT1 (1-408, N-terminal 6 x HIS tag, TEV cleavage site); 6xHis purification tag with TEV site (N, cleaved yes); made in house; host or cells: Spodoptera frugiperda Sf9 insect cells (baculovirus)
T1 sequence (Q9H3H5 1-408): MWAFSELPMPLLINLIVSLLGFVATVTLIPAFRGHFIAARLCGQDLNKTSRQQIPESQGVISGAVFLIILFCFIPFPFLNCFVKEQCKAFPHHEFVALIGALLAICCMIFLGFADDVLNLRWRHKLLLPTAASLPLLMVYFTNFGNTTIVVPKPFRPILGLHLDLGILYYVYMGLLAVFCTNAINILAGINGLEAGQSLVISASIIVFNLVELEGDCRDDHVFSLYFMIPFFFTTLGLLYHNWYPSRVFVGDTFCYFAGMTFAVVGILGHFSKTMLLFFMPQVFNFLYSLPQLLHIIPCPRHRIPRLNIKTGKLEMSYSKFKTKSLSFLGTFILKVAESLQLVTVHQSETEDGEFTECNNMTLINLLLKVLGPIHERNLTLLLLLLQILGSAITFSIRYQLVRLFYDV
In short: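 Purified DPAGT1 (WT or mutant, 2 μM stock) in GFB buffer with extra 5 mM MgCl2, 1% OGNG/CHS/cardiolipin and dolichyl monophosphate, reacted with UDP-N-acetyl-[1-14C]-glucosamine; quenched with methanol. Product separated by silica TLC (chloroform/methanol/water 65:25:4), phosphor-imaged; product fraction of total signal times substrate concentration gives product formed.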

Mtb H37Rv ATCC27294 = assay: Macromolecular incorporation assay (radiolabeled glucosamine); conditions: within 48 h, 10x MIC
[1] = test system: Mtb-infected J774A.1 macrophages; assay: Efficacy against Mtb growing in infected macrophages; conditions: J774A.1 macrophages treated 3 or 7 days
Mtb-GFP = type: cell-based, Mycobacterium tuberculosis
S. aureus ATCC29219 = assay: Micro-broth dilution and drop plate antimicrobial susceptibility test; type: cell-based; conditions: Staphylococcus aureus
E. coli ATCC25922 = assay: as above; type: cell-based; conditions: Escherichia coli
P. aeruginosa ATCC27853 = assay: as above; type: cell-based; conditions: Pseudomonas aeruginosa
in vivo = assay: in vivo; parameters: species or system C57BL/6 mice; conditions: ip; for concentration at 0.5 h / concentration at 1 h / concentration at 2 h / concentration at 4 h / concentration at 6 h / concentration at 24 h: female, C57BL/6, mouse, 30 mg/kg
Procedure: Test compound was dosed to sixteen female C57BL/6 mice by intraperitoneal injection in a volume of 0.6 ml. To reconstitute TUN-8,8 for intraperitoneal injections, compound (1 mg) was dissolved in 0.1 ml ethanol and subsequently diluted with 0.9 ml 1% Tween 80 in Dulbecco’s PBS. The mixture was warmed to 37 °C, vortexed and sonicated followed by sterile filtration through a 0.2 μm filter. Blood samples were taken from the tail vein of the mice at pre-determined time intervals post-dose, and serum collected after 4 h on ice. 30 μl serum samples were prepared with 30 μl internal standard and 20 μl of water or spiked standard along with 240 μl of ACN/MeOH mix (3:1) to precipitate proteins. Samples were centrifuged 13 krpm for 5 minutes and 2 μl injected into LC-MS/MS system. Calibration standard was prepared 1 mg of TUN-8,8 to 1 ml DMSO and successively diluted by a factor of 3. TUN-9,9 IS solution was prepared to 200 μg/ml in DMSO.
LC-MS/MS was performed on an Agilent 1290 Infinity HPLC coupled to an Agilent 6460C triple quadrupole mass selective detector with electrospray ionization in positive mode. TUN-8,8 and TUN-9,9 (as an internal standard) were detected using their M+H precursors ions with 514.1 and 528.2 Da/z product ions produced in a collision cell using collision energy 12 V. Capillary voltage was 3000 V and ESI used jet stream technology with sheath voltage 2000 V. The column was an Agilent C18 Poroshell 120 2.7 μm with dimensions 2.1 x 50 mm at 40 °C. Mobile phase was water (A) and acetonitrile (B) each with 0.1% (v/v) formic acid. […] Water for LC-MS/MS was purified by a Barnstead Diamond system to 18.2 MΩ-cm resistivity. Acetonitrile (ACN) and Methanol were HPLC grade from Fisher (Fairlawn NJ, USA) and formic acid was supplied from EMD Millipore Corp (Darmstadt, Germany). DMSO was ACS grade manufactured by Amresco LLC in Solon Ohio USA.

[2] = Tolerance testing in uninfected mice; type: in vivo; conditions: uninfected mice (n=5), 10 days, daily 30 mg.kg^-1 ip

SMILES: CCCCCCCC(=O)N[C@H]1[C@H](O[C@H]2O[C@H](CO)[C@@H](O)[C@H](O)[C@H]2NC(=O)CCCCCCC)O[C@H](C[C@@H](O)[C@H]2O[C@@H](n3ccc(=O)[nH]c3=O)[C@H](O)[C@@H]2O)[C@H](O)[C@@H]1O [TUN-8,8, Di-N-octanoyl-tunicamycin]
- effect on DPAGT1 catalytic activity (DPAGT1): negligible effect
- glucosamine incorporation (Mtb H37Rv ATCC27294): reduced
- reduction of intracellular bacterial burdens ([1]; 1 × MIC): 1 logs
- reduction of intracellular bacterial burdens ([1]; 10 × MIC): 2 logs
- extracellular release of GFP (lysis) (Mtb-GFP): lytic effects
- IC50 (S. aureus ATCC29219): 58.4 µg/mL (≈ 71.3 µM)
- MBC (S. aureus ATCC29219): 400 µg/mL (≈ 488 µM)
- MIC (S. aureus ATCC29219): 170 ± 60 µg/mL (≈ 208 µM)
- IC50 (E. coli ATCC25922): 123 µg/mL (≈ 150 µM)
- MBC (E. coli ATCC25922): 400 µg/mL (≈ 488 µM)
- MIC (E. coli ATCC25922): 330 ± 120 µg/mL (≈ 403 µM)
- IC50 (P. aeruginosa ATCC27853): 46.6 µg/mL (≈ 56.9 µM)
- MBC (P. aeruginosa ATCC27853): > 400 µg/mL
- MIC (P. aeruginosa ATCC27853): 83 ± 29 µg/mL (≈ 101 µM)
- concentration at 0.5 h (in vivo; first series): 42.7 ± 28.3 µM
- concentration at 1 h (in vivo; first series): 34.6 ± 7.4 µM
- concentration at 2 h (in vivo; first series): 23.7 ± 9.25 µM
- concentration at 4 h (in vivo; first series): 1.32 ± 1.09 µM
- concentration at 6 h (in vivo; first series): 0.21 ± 0.12 µM
- concentration at 24 h (in vivo; first series): 0.06 ± 0.08 µM
- concentration at 0.5 h (in vivo; second series): 52.1 ± 34.5 µM
- concentration at 1 h (in vivo; second series): 42.3 ± 9.04 µM
- concentration at 2 h (in vivo; second series): 28.9 ± 11.3 µM
- concentration at 4 h (in vivo; second series): 1.61 ± 1.33 µM
- concentration at 6 h (in vivo; second series): 0.26 ± 0.15 µM
- concentration at 24 h (in vivo; second series): 0.07 ± 0.1 µM
- bioavailability (in vivo; mouse): good bioavailability
- tolerance, signs of toxicity [2]: no signs of toxicity
